This note sets out measurements from US20230148214A1, “INDAZOLES AND AZAINDAZOLES AS LRRK2 INHIBITORS” (ESCAPE Bio, Inc., priority 2020, published 2023).

One experiment concerns the target T1, LRRK2 WT (Homo sapiens, UniProt Q5S007).
T1 construct: purchased Life Technologies PR8604B
Kind of experiment: LRRK2 Kinase Activity Assay (LanthaScreen TR-FRET), wild type. Conditions: recombinant wild type LRRK2, 25 μM ATP, 400 nM LRRKtide, 60 min. The format is biochemical. A digest of the protocol:
(§1)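 IC50 fitted to the compound-dependent loss of TR-FRET signal. Each kinase form, wild type or G2019S, phosphorylated the fluorescein-tagged ERM-derived LRRKtide in the presence of ATP and compound dilutions over 60 min at room temperature; quench contained 10 mM EDTA and 2 nM anti-pERM antibody (final).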
A general note: TR-FRET usually uses a lanthanide donor and a delayed reading to cut background.

Another experiment has as its target T2, LRRK2 G2019S (Homo sapiens, UniProt Q5S007, G2019S).
T2 construct: purchased Life Technologies PV4881
Kind of experiment: LRRK2 Kinase Activity Assay (LanthaScreen TR-FRET), G2019S. The format is biochemical. Conditions: recombinant G2019S-LRRK2, 25 μM ATP, 400 nM LRRKtide, 60 min; class symbols. In outline: as §1

T1 sequence (Q5S007 whole entry): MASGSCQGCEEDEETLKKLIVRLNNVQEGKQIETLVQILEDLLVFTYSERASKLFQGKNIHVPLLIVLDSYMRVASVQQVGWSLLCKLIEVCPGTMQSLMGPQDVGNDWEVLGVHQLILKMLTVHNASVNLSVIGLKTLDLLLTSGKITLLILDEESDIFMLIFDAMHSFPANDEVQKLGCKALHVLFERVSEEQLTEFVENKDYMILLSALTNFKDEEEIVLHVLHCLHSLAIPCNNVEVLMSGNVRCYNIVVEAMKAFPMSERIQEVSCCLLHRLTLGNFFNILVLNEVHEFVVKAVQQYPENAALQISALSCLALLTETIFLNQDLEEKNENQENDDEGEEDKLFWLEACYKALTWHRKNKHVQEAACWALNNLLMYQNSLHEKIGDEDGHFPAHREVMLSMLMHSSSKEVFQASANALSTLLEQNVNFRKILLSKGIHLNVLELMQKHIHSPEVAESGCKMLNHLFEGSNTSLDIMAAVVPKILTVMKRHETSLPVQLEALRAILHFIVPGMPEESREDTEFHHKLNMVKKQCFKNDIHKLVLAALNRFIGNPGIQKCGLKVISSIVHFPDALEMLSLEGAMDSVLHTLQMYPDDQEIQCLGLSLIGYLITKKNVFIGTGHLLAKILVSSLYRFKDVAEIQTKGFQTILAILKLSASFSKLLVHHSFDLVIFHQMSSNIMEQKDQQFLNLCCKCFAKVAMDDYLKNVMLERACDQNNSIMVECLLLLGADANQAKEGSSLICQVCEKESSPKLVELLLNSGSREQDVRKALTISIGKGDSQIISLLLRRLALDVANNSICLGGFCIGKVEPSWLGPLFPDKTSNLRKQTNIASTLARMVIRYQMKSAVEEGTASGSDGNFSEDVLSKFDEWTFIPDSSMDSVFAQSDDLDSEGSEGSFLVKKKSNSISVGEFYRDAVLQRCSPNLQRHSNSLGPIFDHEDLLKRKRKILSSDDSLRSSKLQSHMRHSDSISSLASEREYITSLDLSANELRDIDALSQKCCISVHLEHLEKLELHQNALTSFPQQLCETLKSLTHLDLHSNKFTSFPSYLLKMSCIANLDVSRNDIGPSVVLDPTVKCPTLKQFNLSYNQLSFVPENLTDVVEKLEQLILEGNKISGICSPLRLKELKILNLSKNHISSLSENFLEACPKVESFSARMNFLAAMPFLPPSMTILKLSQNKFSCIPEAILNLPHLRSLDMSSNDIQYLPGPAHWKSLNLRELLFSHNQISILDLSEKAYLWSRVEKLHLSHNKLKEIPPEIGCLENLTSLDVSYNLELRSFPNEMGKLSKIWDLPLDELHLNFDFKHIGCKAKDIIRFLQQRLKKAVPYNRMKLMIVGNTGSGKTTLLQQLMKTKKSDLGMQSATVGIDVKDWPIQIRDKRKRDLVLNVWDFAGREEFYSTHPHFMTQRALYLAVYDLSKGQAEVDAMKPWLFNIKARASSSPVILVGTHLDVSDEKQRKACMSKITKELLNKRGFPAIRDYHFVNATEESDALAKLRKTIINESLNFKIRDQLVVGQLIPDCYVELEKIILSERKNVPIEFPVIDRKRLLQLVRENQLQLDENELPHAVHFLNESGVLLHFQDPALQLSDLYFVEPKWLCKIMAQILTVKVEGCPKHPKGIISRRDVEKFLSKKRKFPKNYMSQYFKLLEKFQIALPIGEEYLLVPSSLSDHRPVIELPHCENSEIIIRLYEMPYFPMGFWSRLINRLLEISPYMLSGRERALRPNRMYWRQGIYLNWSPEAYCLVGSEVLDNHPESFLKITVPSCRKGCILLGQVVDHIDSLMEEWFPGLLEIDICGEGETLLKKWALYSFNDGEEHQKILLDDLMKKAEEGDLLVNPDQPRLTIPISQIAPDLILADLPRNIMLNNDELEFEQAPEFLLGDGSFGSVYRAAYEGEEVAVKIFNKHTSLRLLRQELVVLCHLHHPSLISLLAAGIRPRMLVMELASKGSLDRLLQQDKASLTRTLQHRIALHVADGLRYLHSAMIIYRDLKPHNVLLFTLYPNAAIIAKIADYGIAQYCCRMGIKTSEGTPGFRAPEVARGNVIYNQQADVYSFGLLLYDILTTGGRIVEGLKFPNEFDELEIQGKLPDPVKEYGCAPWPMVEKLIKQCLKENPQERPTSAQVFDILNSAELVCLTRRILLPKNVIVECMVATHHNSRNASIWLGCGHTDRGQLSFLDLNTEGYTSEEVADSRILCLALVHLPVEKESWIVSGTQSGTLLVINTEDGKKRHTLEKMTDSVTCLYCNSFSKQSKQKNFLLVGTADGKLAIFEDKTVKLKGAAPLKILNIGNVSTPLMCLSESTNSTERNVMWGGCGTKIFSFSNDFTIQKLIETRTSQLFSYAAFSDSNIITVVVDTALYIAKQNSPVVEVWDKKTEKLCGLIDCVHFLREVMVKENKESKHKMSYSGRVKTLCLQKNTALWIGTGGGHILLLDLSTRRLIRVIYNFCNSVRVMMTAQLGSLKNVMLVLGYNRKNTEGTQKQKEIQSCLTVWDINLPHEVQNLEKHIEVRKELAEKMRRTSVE
T2 sequence (Q5S007 whole entry G2019S): as the sequence (Q5S007 whole entry) above, with G2019S counted along it

As a reminder, the IC50 is the concentration needed to halve the response being measured. With `N#Cc1ccc2c(c1)CCC[C@@H]2Nc1ccc2[nH]nc(-c3ccc(C(=O)N4CCOCC4)cc3)c2c1` (single isomer, unassigned) [Example 81, 5-((3-(4-(Morpholine-4-carbonyl)phenyl)-1H-indazol-5-yl)amino)-5,6,7,8-tetrahydronaphthalene-2-carbonitrile], the IC50 on LRRK2 WT (class symbols) and at LRRK2 G2019S was under 0.1 µM each time.
Take `N#Cc1ccc2c(c1)CCC[C@@H]2Nc1ccc2[nH]nc(-c3ccc4c(c3)NC(=O)C4)c2c1` (single isomer, unassigned) [Example 82, 5-((3-(2-Oxoindolin-6-yl)-1H-indazol-5-yl)amino)-5,6,7,8-tetrahydronaphthalene-2-carbonitrile]: the IC50 on LRRK2 WT (class symbols) and at LRRK2 G2019S was under 0.1 µM each time.
For `Cn1cc2cc(-c3n[nH]c4ccc(N[C@H]5CCCc6cc(C#N)ccc65)cc34)ccc2n1` (single isomer, unassigned) [Example 83, 5-((2′-Methyl-1H,2′H-[3,5′-biindazol]-5-yl)amino)-5,6,7,8-tetrahydronaphthalene-2-carbonitrile], the IC50 on LRRK2 WT (class symbols) and on LRRK2 G2019S was under 0.1 µM in each case.
Take `N#Cc1ccc2c(c1)CCC[C@@H]2Nc1ccc2[nH]nc(-c3ccc4c(c3)OCCO4)c2c1` (single isomer, unassigned) [Example 84, 5-((3-(2,3-Dihydrobenzo[b][1,4]dioxin-6-yl)-1H-indazol-5-yl)amino)-5,6,7,8-tetrahydronaphthalene-2-carbonitrile]: the IC50 at LRRK2 WT (class symbols) was 0.1 to 1 µM; on LRRK2 G2019S, under 0.1 µM.
Regarding `CC(=O)Nc1cccc(-c2n[nH]c3ccc(N[C@H]4CCCc5cc(C#N)ccc54)cc23)c1` (single isomer, unassigned) [Example 85, N-(3-(5-((6-Cyano-1,2,3,4-tetrahydronaphthalen-1-yl)amino)-1H-indazol-3-yl)phenyl)acetamide], the IC50 at LRRK2 WT (class symbols) and at LRRK2 G2019S was under 0.1 µM each time.
Turning to `CN(C)C(=O)c1cccc(-c2n[nH]c3ccc(N[C@H]4CCCc5cc(C#N)ccc54)cc23)c1` (single isomer, unassigned) [Example 86, 3-(5-((6-Cyano-1,2,3,4-tetrahydronaphthalen-1-yl)amino)-1H-indazol-3-yl)-N,N-dimethylbenzamide], the 50% inhibitory concentration (IC50) on LRRK2 WT (class symbols) and at LRRK2 G2019S was under 0.1 µM in each case.
Consider `N#Cc1ccc2c(c1)CCC[C@@H]2Nc1ccc2[nH]nc(C3=CCC4(CC3)OCCO4)c2c1` (single isomer, unassigned) [Example 87, 5-((3-(1,4-Dioxaspiro[4.5]dec-7-en-8-yl)-1H-indazol-5-yl)amino)-5,6,7,8-tetrahydronaphthalene-2-carbonitrile], for which the IC50 on LRRK2 WT (class symbols) was 1 to 10 µM; on LRRK2 G2019S it was 0.1 to 1 µM.
For `N#Cc1ccc2c(c1)CCC[C@@H]2Nc1ccc2[nH]nc(C3=CCOCC3)c2c1` (single isomer, unassigned) [Example 88, 5-((3-(3,6-Dihydro-2H-pyran-4-yl)-1H-indazol-5-yl)amino)-5,6,7,8-tetrahydronaphthalene-2-carbonitrile] the same measures were 0.1 to 1 µM and under 0.1 µM.
Turning to `N#Cc1cccc(-c2n[nH]c3ccc(N[C@H]4CCCc5cc(C#N)ccc54)cc23)c1` (single isomer, unassigned) [Example 89, 5-((3-(3-Cyanophenyl)-1H-indazol-5-yl)amino)-5,6,7,8-tetrahydronaphthalene-2-carbonitrile], the IC50 at LRRK2 WT (class symbols) and on LRRK2 G2019S was under 0.1 µM in each case.
For `N#Cc1ccc2c(c1)CCC[C@@H]2Nc1ccc2[nH]nc(-c3ccc(C#N)nc3)c2c1` (single isomer, unassigned) [Example 91, 5-(5-((6-Cyano-1,2,3,4-tetrahydronaphthalen-1-yl)amino)-1H-indazol-3-yl)picolinonitrile], the IC50 was 0.1 to 1 µM at LRRK2 WT (class symbols) and under 0.1 µM on LRRK2 G2019S.
Take `COc1ccc(-c2n[nH]c3ccc(N[C@H]4CCCc5cc(C#N)ccc54)cc23)cc1` (single isomer, unassigned) [Example 92, 5-((3-(4-Methoxyphenyl)-1H-indazol-5-yl)amino)-5,6,7,8-tetrahydronaphthalene-2-carbonitrile]: the values for the IC50 on LRRK2 WT (class symbols) and at LRRK2 G2019S were 0.1 to 1 µM and under 0.1 µM, respectively.
On to `N#Cc1ccc2c(c1)CCC[C@@H]2Nc1ccc2[nH]nc(/C=C/c3ccccc3)c2c1` (single isomer, unassigned) [Example 93, (E)-5-((3-Styryl-1H-indazol-5-yl)amino)-5,6,7,8-tetrahydronaphthalene-2-carbonitrile], for which the IC50 at LRRK2 WT (class symbols) and on LRRK2 G2019S was under 0.1 µM throughout.
With `CN1CC=C(c2n[nH]c3ccc(N[C@H]4CCCc5cc(C#N)ccc54)cc23)CC1` (single isomer, unassigned) [Example 94, 5-((3-(1-Methyl-1,2,3,6-tetrahydropyridin-4-yl)-1H-indazol-5-yl)amino)-5,6,7,8-tetrahydronaphthalene-2-carbonitrile], the IC50 on LRRK2 WT (numeric bound) was over 10 µM; at LRRK2 G2019S, 1 to 10 µM.
Consider `N#Cc1ccc2c(c1)CCC[C@@H]2Nc1ccc2[nH]nc(-c3ccc(Br)cc3)c2c1` (single isomer, unassigned) [Example 95, 5-((3-(4-Bromophenyl)-1H-indazol-5-yl)amino)-5,6,7,8-tetrahydronaphthalene-2-carbonitrile], for which the IC50 was 1 to 10 µM on LRRK2 WT (class symbols) and under 0.1 µM on LRRK2 G2019S.
Turning to `N#Cc1ccc2c(c1)CCC[C@@H]2Nc1ccc2[nH]nc(-c3cnn4c3CCC4)c2c1` (single isomer, unassigned) [Example 96, 5-((3-(5,6-Dihydro-4H-pyrrolo[1,2-b]pyrazol-3-yl)-1H-indazol-5-yl)amino)-5,6,7,8-tetrahydronaphthalene-2-carbonitrile], the IC50 on LRRK2 WT (class symbols) and at LRRK2 G2019S was under 0.1 µM in each case.
In the case of `Cn1ccc(-c2n[nH]c3ccc(N[C@H]4CCCc5cc(C#N)ccc54)cc23)cc1=O` (single isomer, unassigned) [Example 97, 5-((3-(1-Methyl-2-oxo-1,2-dihydropyridin-4-yl)-1H-indazol-5-yl)amino)-5,6,7,8-tetrahydronaphthalene-2-carbonitrile], the figures for the IC50 at LRRK2 WT (class symbols) and on LRRK2 G2019S were 0.1 to 1 µM and under 0.1 µM, respectively.
As to `N#Cc1ccc2c(c1)CCC[C@@H]2Nc1ccc2[nH]nc(-c3cccnc3)c2c1` (single isomer, unassigned) [Example 98, 5-((3-(Pyridin-3-yl)-1H-indazol-5-yl)amino)-5,6,7,8-tetrahydronaphthalene-2-carbonitrile], the IC50 at LRRK2 WT (class symbols) and at LRRK2 G2019S was under 0.1 µM in each case.
As to `C/C=C\c1n[nH]c2ccc(N[C@H]3CCCc4cc(C#N)ccc43)cc12` (single isomer, unassigned) [Example 99, (Z)-5-((3-(Prop-1-en-1-yl)-1H-indazol-5-yl)amino)-5,6,7,8-tetrahydronaphthalene-2-carbonitrile], the values for the IC50 at LRRK2 WT (class symbols) and at LRRK2 G2019S were 0.1 to 1 µM and under 0.1 µM, respectively.
As to `Cc1cncc(-c2n[nH]c3ccc(N[C@H]4CCCc5cc(C#N)ccc54)cc23)c1` (single isomer, unassigned) [Example 100, 5-((3-(5-Methylpyridin-3-yl)-1H-indazol-5-yl)amino)-5,6,7,8-tetrahydronaphthalene-2-carbonitrile], the IC50 at LRRK2 WT (class symbols) and at LRRK2 G2019S was under 0.1 µM throughout.
As for `COc1c(C#N)ccc2c1CCC[C@@H]2Nc1ccc2[nH]nc(-c3cnco3)c2c1` (single isomer, unassigned) [Example 101, enantiomer 1, 1-Methoxy-5-{[3-(1,3-oxazol-5-yl)-1H-indazol-5-yl]amino}-5,6,7,8-tetrahydronaphthalene-2-carbonitrile], the IC50 at LRRK2 WT (class symbols) and at LRRK2 G2019S was under 0.1 µM throughout.
For `COc1nc2c(cc1C#N)CCC[C@@H]2Nc1ccc2[nH]nc(-c3cnco3)c2c1` (single isomer, unassigned) [Example 102, enantiomer 1, 2-Methoxy-8-((3-(oxazol-5-yl)-1H-indazol-5-yl)amino)-5,6,7,8-tetrahydroquinoline-3-carbonitrile], the IC50 on LRRK2 WT (class symbols) and on LRRK2 G2019S was under 0.1 µM each time.
On to `COc1nc2c(cc1C#N)CCC[C@@H]2Nc1ccc2[nH]nc(-c3cnco3)c2c1` (single isomer, unassigned) [Example 102, enantiomer 2, 2-Methoxy-8-((3-(oxazol-5-yl)-1H-indazol-5-yl)amino)-5,6,7,8-tetrahydroquinoline-3-carbonitrile], for which the IC50 fell in the range of 1 to 10 µM on LRRK2 WT (class symbols) and 0.1 to 1 µM on LRRK2 G2019S.
Consider `N#Cc1cnc2c(c1)CC[C@@H]2Oc1ccc2[nH]nc(-c3cnco3)c2c1` (single isomer, unassigned) [Example 103, enantiomer 1, 7-((3-(Oxazol-5-yl)-1H-indazol-5-yl)oxy)-6,7-dihydro-5H-cyclopenta[b]pyridine-3-carbonitrile], for which the concentration for half-maximal inhibition (IC50) at LRRK2 WT (class symbols) and on LRRK2 G2019S was under 0.1 µM each time.
`N#Cc1ccc2c(c1)CCCC[C@@H]2Nc1ccc2[nH]nc(-c3cnco3)c2c1` (single isomer, unassigned) [Example 104, enantiomer 1, 5-((3-(Oxazol-5-yl)-1H-indazol-5-yl)amino)-6,7,8,9-tetrahydro-5H-benzo[7]annulene-2-carbonitrile]: the IC50 at LRRK2 WT (class symbols) and on LRRK2 G2019S was under 0.1 µM each time.
Turning to `N#Cc1ccc2c(c1)CCCC[C@@H]2Nc1ccc2[nH]nc(-c3cnco3)c2c1` (single isomer, unassigned) [Example 104, enantiomer 2, 5-((3-(Oxazol-5-yl)-1H-indazol-5-yl)amino)-6,7,8,9-tetrahydro-5H-benzo[7]annulene-2-carbonitrile], the IC50 at LRRK2 WT (class symbols) and at LRRK2 G2019S was 0.1 to 1 µM in each case.
For the molecule `CC1(C)C[C@H](Nc2ccc3[nH]nc(-c4cnco4)c3c2)c2ccc(C#N)cc21` (single isomer, unassigned) [Example 105, enantiomer 1, 3,3-Dimethyl-1-((3-(oxazol-5-yl)-1H-indazol-5-yl)amino)-2,3-dihydro-1H-indene-5-carbonitrile], the IC50 at LRRK2 WT (class symbols) is 0.1 to 1 µM; on LRRK2 G2019S, under 0.1 µM.
